The values that follow come from patent US20240208953A1, “"Cyclopenta[c]pyrrol Negative Allosteric Modulators of NR2B"” (Novartis AG, priority 2021, published 2024).

Each structure is given as a SMILES string.

One data set has as its target NR2B (Rattus norvegicus (Rat), UniProt Q00960). Nature of the data set: NR2B rat cortical neuron calcium influx assay. In kind it is cell-based. The note with it: rat cortical neurons, glutamate and glycine stimulated calcium influx. The text has this:
Example 1: NR2B Rat Cortical Neuron Calcium Influx Assay Protocol
Embryonic day 18 timed pregnant Sprague Dawley rats were euthanized according to Institutional Animal Care and Use Committee (IACUC) protocol. After cutting medially through the skin and exposing the uterus and embryos, fetuses were removed and placed in cold Hibernate medium. Each embryo's brain was extracted and cerebral cortices were isolated by removing the midbrain and meninges. The dissected cortices were then dissociated into the neurons using papain dissociation system (Worthington Biochemical Corporation) according the manufacturer's protocol.
Dissociated neurons were counted and plated into 384-well poly-D-lysine coated plates (Corning® BioCoat™) at a density of 20,000 cells/well in 30 μL of Neurobasal/B27 complete medium. Neurons were cultured at 37° C. for 2 days. On the assay day, medium was removed and cells were incubated with 20 μL/well of calcium dye (Calcium 6 Assay Kit, Molecular Devices) suspended in HBSS with 1.8 mM Ca^2+ (Ca-HBSS) according to the manufacturer's instruction.
Compounds of interest from 10 mM stock were serially diluted into 3× of desired concentrations in 1.8 mM Ca-HBSS, and 10 μL were added to the wells. Compound and the neurons were incubated at 37° C. for 2 hours in the dark.
On FDSS7000EX (Hamamatsu Photonics), a fluorescence measuring instrument, 10 μL of 4× ligand solution containing glutamate and glycine made in 1.8 mM Ca^2+-HBSS were added to each well. The fluorescent signals were collected before and after the addition of ligands for a total of 2 minutes. The data were converted to a ratio of the peak fluorescence to the fluorescence at the beginning of the measurement.
Each data point was measured in duplicates. Dose response curves were used to identify IC50 and maximal inhibition values. IC50 represents the concentration in μM of compound at which there is a half-maximal compound effect. Maximal inhibition of a compound is expressed as a percent of the highest inhibition of activity over a no compound control.

The next data set deals with P-glycoprotein (P-gp) (Homo sapiens (Human), UniProt P08183). The experiment in a line: MDCK-MDR1 permeability / efflux assay. Format: in vitro ADME. The note with it: for efflux ratio at 120 min, 10 μM: dog, MDCK-MDR1, pH 7.4, efflux ratio, read-out: MDCK-MDR1 ER. The protocol: Example 4. Experimental Measurement of Efflux with MDCK-MDR1 Protocol
Cell Culture. MDCK-MDR1 cells were cultured at 37° C. under a 5% CO2 atmosphere, at 95% relative humidity in DMEM containing 10% FBS, penicillin-streptomycin (100 μg/mL), and 2 mM Ala-Gln. Cells were passaged every 3-4 days. For assay purposes, cells were seeded at a density of approximately 265,000 cells/cm^2 of a 96-well Transwell plate (Corning Life Sciences, Acton, MA) and cultured in the same media noted above for a period of 4 days.
Assay. The determination of the apparent permeability (Papp) was performed in both the A→B (apical to basal) and B→A (basal to apical) directions where each compound was assayed in triplicate. The zwitterion bestatin, a poorly permeably compound, was used as marker of monolayer integrity. To initiate the assay, media was aspirated, and the cells and basal chambers were washed three times with Hank's Balanced Salt Solution (HBSS) containing 10 mM HEPES (pH 7.4). Compound test solutions were prepared in triplicate in HBSS containing 10 mM HEPES (pH 7.4) and 0.02% bovine serum albumin (BSA) to a final concentration of 10 μM and centrifuged for 2 min at 4000×g, then applied to the donor compartment at time zero. Additionally, at time zero, a 37° C. solution without test articles (HBSS+10 mM HEPES (pH 7.4) plus 0.02% BSA) was added to the receiver chamber of the Transwell plate. A time zero sample of the donor solution was also sampled for further analysis. The assay was conducted for a period of 120 min at 37° C. without shaking. At the time of assay termination, samples were taken from each donor compartment, and each acceptor compartment of the Transwell plate. To each of the 0 and 120 min samples was added an internal standard solution containing glyburide in water:acetonitrile, 50:50 (v:v). Concentration curves were prepared using a Labcyte Echo in the same matrix noted above. Samples and concentration curve samples were centrifuged for 10 min at 4000×g and subsequently analyzed by mass spectroscopy.
Mass Spectroscopy. Assay samples were loaded onto a RapidFire C4 cartridge by means of a RapidFire autosampler (Agilent, Santa Clara, CA). […] Mass spectroscopy was performed using an AB Sciex AP15500 (Sciex, Frammingham, MA) equipped with a turbo ion spray source. The analyte concentration was calculated from the chromatographic peak area ratio of analyte to internal standard (glibenclamide, m/z 494→169), using Multiquant software V3.0 (Sciex, Framingham, MA).
Calculations. Papp values were determined as
Percent recovery values were determined as:
where VA is the volume of the acceptor (mL), S is the surface area of the membrane, D0 is the donor solution concentration at t=0, D120 is the donor solution concentration at t=120, A120 is the acceptor solution concentration at t=120, and t=time (seconds).
The suitability of a compound for oral dosing and/or for use as a CNS therapeutic is usually conducted by MDCK-MDR1 permeability assay to investigate its drug efflux potential mediated by P-glycoprotein (P-gp). MDCK-MDR1 permeability has been used as a predictor of blood brain barrier permeability in terms of efflux ratio (ER).

NR2B, sequence (Q00960 27-1482, other chains not shown): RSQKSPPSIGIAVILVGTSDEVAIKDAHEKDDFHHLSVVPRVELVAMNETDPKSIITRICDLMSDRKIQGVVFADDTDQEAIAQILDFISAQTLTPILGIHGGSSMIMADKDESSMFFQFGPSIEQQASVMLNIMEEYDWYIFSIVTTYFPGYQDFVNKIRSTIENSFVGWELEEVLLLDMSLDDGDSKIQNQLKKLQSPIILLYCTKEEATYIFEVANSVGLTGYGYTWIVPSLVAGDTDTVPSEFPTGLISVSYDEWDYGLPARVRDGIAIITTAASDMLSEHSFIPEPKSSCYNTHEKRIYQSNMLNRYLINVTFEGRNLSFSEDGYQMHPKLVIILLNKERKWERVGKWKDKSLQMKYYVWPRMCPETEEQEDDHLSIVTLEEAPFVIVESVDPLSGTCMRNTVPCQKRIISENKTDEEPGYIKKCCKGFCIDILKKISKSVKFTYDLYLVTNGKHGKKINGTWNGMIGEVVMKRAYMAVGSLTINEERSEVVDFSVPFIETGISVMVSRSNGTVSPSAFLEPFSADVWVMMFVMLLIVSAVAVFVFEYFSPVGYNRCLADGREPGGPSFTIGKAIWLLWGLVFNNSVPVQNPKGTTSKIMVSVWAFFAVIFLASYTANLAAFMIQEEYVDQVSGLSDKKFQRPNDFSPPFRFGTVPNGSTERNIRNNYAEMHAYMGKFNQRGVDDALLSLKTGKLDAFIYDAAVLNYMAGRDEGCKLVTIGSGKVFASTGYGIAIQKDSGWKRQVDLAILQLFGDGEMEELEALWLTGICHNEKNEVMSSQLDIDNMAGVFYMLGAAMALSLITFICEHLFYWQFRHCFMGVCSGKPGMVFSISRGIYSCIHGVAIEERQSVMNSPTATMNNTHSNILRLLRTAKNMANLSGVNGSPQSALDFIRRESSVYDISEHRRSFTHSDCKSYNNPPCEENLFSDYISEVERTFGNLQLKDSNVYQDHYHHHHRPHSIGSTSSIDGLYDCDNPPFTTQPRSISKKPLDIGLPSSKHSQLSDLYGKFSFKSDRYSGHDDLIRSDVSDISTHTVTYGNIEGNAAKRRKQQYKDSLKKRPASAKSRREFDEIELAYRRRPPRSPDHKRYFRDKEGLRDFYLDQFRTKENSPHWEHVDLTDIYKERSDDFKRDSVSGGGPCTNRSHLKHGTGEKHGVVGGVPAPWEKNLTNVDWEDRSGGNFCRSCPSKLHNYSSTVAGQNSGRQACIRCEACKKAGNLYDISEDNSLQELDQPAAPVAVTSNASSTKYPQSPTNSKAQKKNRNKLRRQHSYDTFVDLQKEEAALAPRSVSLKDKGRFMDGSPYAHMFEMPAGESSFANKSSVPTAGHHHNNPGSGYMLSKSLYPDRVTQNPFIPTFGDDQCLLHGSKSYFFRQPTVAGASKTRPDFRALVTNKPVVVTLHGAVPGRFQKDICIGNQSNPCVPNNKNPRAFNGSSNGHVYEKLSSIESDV
P-glycoprotein (P-gp), sequence (P08183 whole entry): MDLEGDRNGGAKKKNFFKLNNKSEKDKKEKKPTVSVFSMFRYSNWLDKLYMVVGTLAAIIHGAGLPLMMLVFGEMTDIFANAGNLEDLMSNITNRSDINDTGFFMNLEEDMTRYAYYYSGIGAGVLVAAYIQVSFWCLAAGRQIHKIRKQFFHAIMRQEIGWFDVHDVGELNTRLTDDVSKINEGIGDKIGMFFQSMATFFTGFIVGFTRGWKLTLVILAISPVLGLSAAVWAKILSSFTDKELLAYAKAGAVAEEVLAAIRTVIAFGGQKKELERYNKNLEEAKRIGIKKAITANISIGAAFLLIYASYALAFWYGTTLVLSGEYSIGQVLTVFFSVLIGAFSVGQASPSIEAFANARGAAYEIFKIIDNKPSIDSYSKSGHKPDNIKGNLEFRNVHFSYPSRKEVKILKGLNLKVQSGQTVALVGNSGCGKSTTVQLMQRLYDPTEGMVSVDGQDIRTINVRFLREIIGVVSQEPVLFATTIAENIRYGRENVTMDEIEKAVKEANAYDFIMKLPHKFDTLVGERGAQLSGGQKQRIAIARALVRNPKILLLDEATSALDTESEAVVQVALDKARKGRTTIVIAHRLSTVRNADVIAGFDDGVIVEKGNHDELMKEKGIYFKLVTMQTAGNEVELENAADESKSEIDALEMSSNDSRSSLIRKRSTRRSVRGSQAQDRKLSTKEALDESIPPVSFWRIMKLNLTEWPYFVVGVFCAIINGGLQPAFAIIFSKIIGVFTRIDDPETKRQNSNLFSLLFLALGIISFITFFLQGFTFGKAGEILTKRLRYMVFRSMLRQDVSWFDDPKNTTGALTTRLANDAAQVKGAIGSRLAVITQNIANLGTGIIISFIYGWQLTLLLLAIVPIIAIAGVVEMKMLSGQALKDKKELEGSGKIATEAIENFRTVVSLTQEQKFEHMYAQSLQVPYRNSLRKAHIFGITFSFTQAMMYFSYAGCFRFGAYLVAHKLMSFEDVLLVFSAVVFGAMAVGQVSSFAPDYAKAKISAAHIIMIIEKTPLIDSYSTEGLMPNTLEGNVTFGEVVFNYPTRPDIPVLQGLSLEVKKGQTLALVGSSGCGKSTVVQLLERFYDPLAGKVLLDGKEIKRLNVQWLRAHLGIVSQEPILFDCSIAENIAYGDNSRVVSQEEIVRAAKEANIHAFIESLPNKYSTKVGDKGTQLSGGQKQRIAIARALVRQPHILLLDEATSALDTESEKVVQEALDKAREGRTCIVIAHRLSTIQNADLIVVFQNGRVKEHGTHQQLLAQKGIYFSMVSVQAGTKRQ

`O=C1CCc2cc([C@@H](O)CN3C[C@@H]4C[C@@H](Oc5c(F)cccc5F)C[C@]4(O)C3)ccc2N1` (single isomer, unassigned) [Example 27C]: at NR2B, the concentration for half-maximal inhibition (IC50) was determined as 1.7 nM. Besides, at P-glycoprotein (P-gp), the efflux ratio at 120 min, 10 μM turned out to be 1.52.
The like results for `O=C1CCc2cc([C@H](O)CN3C[C@@H]4C[C@@H](Oc5c(F)cccc5F)C[C@]4(O)C3)ccc2N1` (single isomer, unassigned) [Example 27D] were, in that order, 1.4 nM and 2.05.
Taken in the same sequence, the figures for `O=C1Nc2ccc([C@H](O)CN3C[C@H]4C[C@H](Oc5ccccc5)C[C@@]4(O)C3)cc2CO1` (single isomer, unassigned) [Example 28B] were 1.7 nM and 3.18.
For the molecule `O=C1CCc2cc([C@@H](O)CN3C[C@H]4C[C@H](Oc5ccccc5F)[C@H](O)[C@@]4(O)C3)cc(F)c2N1` (single isomer, unassigned) [Example 29A], the half-maximal inhibitory concentration (IC50) on NR2B was 130 nM. Moreover, the efflux ratio at 120 min, 10 μM on P-glycoprotein (P-gp) stood at 3.23.
Taken in the same sequence, the figures for `O=C1CCCc2cc([C@@H](O)CN3C[C@H]4C[C@H](Oc5ccccc5)C[C@@]4(O)C3)cc(F)c2N1` (single isomer, unassigned) [Example 30A] were 280 nM and 1.18.
The like results for `O=C1Nc2ccc([C@@H](O)CN3C[C@H]4C[C@H](Oc5ccccc5)C[C@@]4(O)C3)c(F)c2CO1` (single isomer, unassigned) [Example 34A] were, in that order, 2.7 nM and 3.81.
The like results for `O=C1Nc2ccc([C@H](O)CN3C[C@H]4C[C@H](Oc5ccccc5)C[C@@]4(O)C3)c(F)c2CO1` (single isomer, unassigned) [Example 34B] were, in that order, 1.1 nM and 3.47.
Consider `O=C1Nc2c(F)cc([C@@H](O)CN3C[C@H]4C[C@H](Oc5ccccc5F)C[C@@]4(O)C3)cc2CO1` (single isomer, unassigned) [Example 35A], for which the 50% inhibitory concentration (IC50) on NR2B amounted to 1.2 nM. The efflux ratio at 120 min, 10 μM on P-glycoprotein (P-gp) is 1.
Taken in the same sequence, the figures for `O=C1Nc2c(F)cc([C@H](O)CN3C[C@H]4C[C@H](Oc5ccccc5F)C[C@@]4(O)C3)cc2CO1` (single isomer, unassigned) [Example 35B] were 1.3 nM and 2.04.
As to `O=C1Nc2cc(F)c([C@H](O)CN3C[C@H]4C[C@H](Oc5ccccc5)C[C@@]4(O)C3)cc2CO1` (single isomer, unassigned) [Example 36B], the IC50 on NR2B was determined as 1.5 nM. Besides, the efflux ratio at 120 min, 10 μM at P-glycoprotein (P-gp) is 2.44.
Taken in the same sequence, the figures for `O=C1Nc2c(F)cc([C@@H](O)CN3C[C@H]4C[C@H](Oc5ccccc5)C[C@@]4(O)C3)c(F)c2CO1` (single isomer, unassigned) [Example 37A] were 33 nM and 1.15.
Taken in the same sequence, the figures for `O=C1Nc2c(cc([C@@H](O)CN3C[C@H]4C[C@H](Oc5ccccc5)C[C@@]4(O)C3)c(F)c2F)CO1` (single isomer, unassigned) [Example 38A] were 5.1 nM and 1.58.
Taken in the same sequence, the figures for `O=C1Nc2ccc([C@@H](O)CN3C[C@H]4C[C@H](Oc5ccccc5F)C[C@@]4(O)C3)cc2CO1` (single isomer, unassigned) [Example 41A] were 0.3 nM and 1.86.
`O=C1Nc2ccc([C@H](O)CN3C[C@H]4C[C@H](Oc5ccccc5F)C[C@@]4(O)C3)cc2CO1` (single isomer, unassigned) [Example 41B]: the concentration for half-maximal inhibition (IC50) at NR2B was 0.23 nM. Moreover, the efflux ratio at 120 min, 10 μM on P-glycoprotein (P-gp) turned out to be 2.44.
Taken in the same sequence, the figures for `O=C1CCCc2cc([C@@H](O)CN3C[C@H]4C[C@H](Oc5ccccc5F)C[C@@]4(O)C3)ccc2N1` (single isomer, unassigned) [Example 43A] were 0.034 nM and 2.16.
Taken in the same sequence, the figures for `O[C@@H](CN1C[C@H]2C[C@H](Oc3ccccc3F)[C@H](O)[C@@]2(O)C1)c1cnc2[nH]ccc2c1` (single isomer, unassigned) [Example 44A] were 170 nM and 6.09.
Taken in the same sequence, the figures for `O=C1Cc2cc([C@H](O)CN3C[C@H]4C[C@H](Oc5ccccc5)C[C@@]4(O)C3)ccc2N1` [Example 2B, 5-((S)-1-hydroxy-2-((3aS,5S,6aR)-3a-hydroxy-5-phenoxyhexahydrocyclopenta[c]pyrrol-2(1H)-yl)ethyl)indolin-2-one] were 63 nM and 3.54.
Regarding `O=C1Cc2cc([C@@H](O)CN3C[C@@H]4C[C@@H](Oc5ccccc5)[C@@H](O)[C@]4(O)C3)ccc2N1` [Example 3A, 5-((R)-2-((3aR,4R,5R,6aS)-3a,4-dihydroxy-5-phenoxyhexahydrocyclopenta[c]pyrrol-2(1H)-yl)-1-hydroxyethyl)indolin-2-one], on NR2B, the half-maximal inhibitory concentration (IC50) was determined as 5490 nM. Further, on P-glycoprotein (P-gp), the efflux ratio at 120 min, 10 μM was found to be 7.49.
On to `O=C1Cc2cc([C@H](O)CN3C[C@@H]4C[C@@H](Oc5ccccc5)[C@@H](O)[C@]4(O)C3)ccc2N1` [Example 3B], for which the IC50 at NR2B is greater than 10000 nM. Further, at P-glycoprotein (P-gp) (efflux ratio, 10 μM, 120 min), the “MDCK-MDR1 ER” value stood at 6.36.
Consider `O=C1CCc2cc([C@@H](O)CN3C[C@H]4C[C@H](Oc5ccccc5)[C@H](O)[C@@]4(O)C3)ccc2N1` [Example 4A, 6-((R)-2-((3aS,4S,5S,6aR)-3a,4-dihydroxy-5-phenoxyhexahydrocyclopenta[c]pyrrol-2(1H)-yl)-1-hydroxyethyl)-3,4-dihydroquinolin-2(1H)-one], for which the IC50 on NR2B stood at 13 nM. Moreover, the efflux ratio at 120 min, 10 μM at P-glycoprotein (P-gp) came to 6.99.
Taken in the same sequence, the figures for `O=C1CCc2cc([C@@H](O)CN3C[C@@H]4C[C@@H](Oc5ccccc5)[C@@H](O)[C@]4(O)C3)ccc2N1` [Example 4C, 6-((R)-2-((3aR,4R,5R,6aS)-3a,4-dihydroxy-5-phenoxyhexahydrocyclopenta[c]pyrrol-2(1H)-yl)-1-hydroxyethyl)-3,4-dihydroquinolin-2(1H)-one] were 3050 nM and 6.75.
As for `O=C1CCc2cc([C@H](O)CN3C[C@@H]4C[C@@H](Oc5ccccc5)[C@@H](O)[C@]4(O)C3)ccc2N1` [Example 4D, 6-((S)-2-((3aR,4R,5R,6aS)-3a,4-dihydroxy-5-phenoxyhexahydrocyclopenta[c]pyrrol-2(1H)-yl)-1-hydroxyethyl)-3,4-dihydroquinolin-2(1H)-one], on NR2B, the IC50 is 250 nM. The efflux ratio at 120 min, 10 μM on P-glycoprotein (P-gp) stood at 6.87.

For orientation: IC50 means the concentration needed to halve the response being measured.
